Columns and labels:
[1] = Bulk and tapped density analyses according to USP, with calculated compressibility index and Hausner ratio; assay type: physicochemical
Protocol: Bulk and tapped density analyses of DUR sodium salt were performed according to USP and the compressibility index (CI) and Hausner ratio was calculated. Typically, a material is considered to have poor flowability if the Hausner ratio is greater than 1.25 and/or if the CI is greater than 25. See e.g., Leroy A. Sherrington, Amal Sherrington, in Analytical Profiles of Drug Substances and Excipients, 1998. […] These experimental values are consistent with the observed powder adhesion.
It has now been found, however, that co-lyophilizing durlobactam sodium salt and sulbactam sodium salt improved flow properties compared to lyophilized durlobactam sodium alone. Initial experiments involved dissolving a 1:1 w/w mixture of durlobactam sodium salt and sulbactam sodium salt in water-for-injection and optimizing the bulk lyophilization conditions (per scale).

[2] = Dry powder filling / machinability trials: powder adhesion to filling equipment; assay type: physicochemical; details: machine filling of glass vials
Description: Initial attempts to formulate a fixed dosage comprised dry powder filling both DUR sodium salt and SUL sodium salt in glass vials. […] The drawback leads to unreliable and inconsistent product dosing. […] See e.g., the Exemplification section below.
Attempts to develop a commercially feasible fixed-dose combination of durlobactam and sulbactam by dry powder filling both DUR sodium salt and SUL sodium salt (as a 1:1 w/w mixture of each salt form) in glass vials were not successful because of the highly hygroscopic, poor flow properties of DUR sodium salt. […] See e.g., FIG. 1, showing the DUR sodium salt powder residue from the centralized suction and on the feeding chute observed during machinability trials. See also FIG. 2 which depicts the appearance of the DUR sodium salt powder filled product.

Enterobacteriaceae = details: in vitro; cited from earlier work
[3] = system: class A, C, and D β-lactamases; details: cited from earlier work
[4] = system: A. baumannii complex (ABC) isolates; details: cited from earlier work
[5] = calculated from bulk and tapped density

SMILES	Bulk density [1] [g/mL]	Flowability as indicated by Hausner ratio and CI [1]	Tapped density [1] [g/mL]	CI (compressibility index) [1, 5] [%]	Hausner ratio [1, 5]	Hausner ratio ([1]; calculated from bulk and tapped density, listed as DUR sodium salt)	Powder adhesion to the parts of the filling equipment [2]	Intrinsic antibacterial activity (Enterobacteriaceae)	Inhibition of β-lactamases [3]	Restoration of in vitro activity of sulbactam ([4]; in combination with sulbactam)	Intrinsic activity ([4]; in vitro, durlobactam alone)
CC1=C[C@@H]2CN(C(=O)N2OS(=O)(=O)[O-])[C@@H]1C(N)=O.[Na+] [DUR-Na salt, Durlobactam]	0.38	extremely poor flowing material	0.61	38	1.6	> 1.6	significant powder adhesion				
CC1=C[C@@H]2CN(C(=O)N2OS(=O)(=O)O)[C@@H]1C(N)=O [Durlobactam]								intrinsic antibacterial activity against some Enterobacteriaceae	potent inhibition	restores the in vitro activity of sulbactam	no significant intrinsic activity

Source: patent publication US20250352521A1, “FIXED DOSAGE ANTIBIOTIC COMPOSITIONS” (Entasis Therapeutics Limited, priority 2021, published 2025)
